Measured values published in patent publication US20200062696A1, “COMPOSITIONS AND METHODS FOR INHIBITING RETICULON 4” (THE REGENTS OF THE UNIVERSITY OF CALIFORNIA, priority 2017, published 2020).

What was measured:
[1] = system: SW620 colorectal cancer cells; assay: Serum-free cell survival of SW620 cells (Hoescht staining); assay type: cell-based; details: Homo sapiens, SW-620, cysteine-reactive fragment 50 μM, 48 h, vs DMSO, average of n = 3/group, read-out: SW620 survival Ave
Procedure: (§1) Cell Culture. SW620 cells were purchased from ATCC. SW620 cells were grown in L-15 media with 10% fetal bovine serum (FBS) in ambient CO2. U2OS cells were grown in DMEM media supplemented with 10% FBS at 37° C. with 5% CO2.
(§2) Survival and Proliferation Assays. Cells were plated the evening before the experiment, and allowed to adhere overnight. For serum-free cell survival assays, cells were plated in media not containing FBS. For cell proliferation assays, cells were plated in regular media. For the chemical genetics screen, cells were treated with either DMSO or the cysteine-reactive fragment for 48 h and cell viability was assessed by Hoescht stain using our previously described methods

[2] = system: SW620 colorectal cancer cells; assay: Cell proliferation of SW620 cells (Hoescht staining); assay type: cell-based; details: Homo sapiens, SW-620, cysteine-reactive fragment 50 μM, 48 h, vs DMSO, average of n = 3/group, read-out: SW620 proliferation Ave
Procedure: as §1, §2

| Compound | viability at 50 µM [1] [%] | activity at 50 µM [2] [%] |
| --- | --- | --- |
| C=CC(=O)NCc1ccccc1 [DKM 2-31, N-benzylacrylamide] | 89 | 116 |
| C=CC(=O)NC(C)CCc1ccccc1 (stereo not drawn) [DKM 2-32, N-(4-phenylbutan-2-yl)acrylamide] | 91 | 114 |
| C=CC(=O)NCc1ccc(OC)cc1 [DKM 2-33, N-(4-methoxybenzyl)acrylamide] | 92 | 115 |
| C=CC(=O)NCc1ccc(F)cc1 [DKM 2-34, N-(4-fluorobenzyl)acrylamide] | 78 | 105 |
| C=CC(=O)NCc1ccc(-c2ccccc2)cc1 [DKM 2-37, N-([1,1′-biphenyl]-4-ylmethyl)acrylamide] | 57 | 73 |
| C=CC(=O)N1CCN(C(=O)OCC)CC1 [DKM 2-39, Ethyl 4-acryloylpiperazine-1-carboxylate] | 93 | 110 |
| C=CC(=O)Nc1cc(F)ccc1F [DKM 2-40, N-(2,5-difluorophenyl)acrylamide] | 36 | 98 |
| C=CC(=O)NCCc1ccccc1 [DKM 2-42, N-phenethylacrylamide] | 104 | 137 |
| C=CC(=O)NCc1ccc(Br)cc1 [DKM 2-43, N-(4-bromobenzyl)acrylamide] | 84 | 128 |
| C=CC(=O)NCc1cc(C)cc(C)c1 [DKM 2-47, N-(3,5-dimethylbenzyl)acrylamide] | 78 | 112 |
| C=CC(=O)N1CCCC1 [DKM 2-48, 1-(pyrrolidin-1-yl)prop-2-en-1-one] | 90 | 85 |
| C=CC(=O)N1CCOCC1 [DKM 2-49, 1-morpholinoprop-2-en-1-one] | 80 | 109 |
| C=CC(=O)NCCCc1ccccc1 [DKM 2-50, N-(3-phenylpropyl)acrylamide] | 89 | 130 |
| CCOC(=O)N1CCN(C(=O)CCl)CC1 [DKM 2-52, Ethyl 4-(2-chloroacetyl)piperazine-1-carboxylate] | 92 | 53 |
| C=CC(=O)NCCOc1ccccc1OC [DKM 2-58, N-(2-(2-methoxyphenoxy)ethyl)acrylamide] | 98 | 116 |
| C=CC(=O)NCc1ccccc1-c1ccccc1 [DKM 2-59, N-([1,1′-biphenyl]-2-ylmethyl)acrylamide] | 66 | 74 |
| C=CC(=O)NCc1ccccc1Cl [DKM 2-60, N-(2-chlorobenzyl)acrylamide] | 108 | 100 |
| C=CC(=O)NCc1ccccc1[N+](=O)[O-] [DKM 2-62, N-(2-nitrobenzyl)acrylamide] | 115 | 95 |
| O=C(CCl)NCc1ccccc1 [DKM 2-67, N-benzyl-2-chloroacetamide] | 87 | 73 |
| O=C(CCl)N1CCCC1 [DKM 2-71, 2-Chloro-1-(pyrrolidin-1-yl)ethan-1-one] | 81 | 41 |
| CCCCCCCCCCNC(=O)CCl [DKM 2-72, 2-Chloro-N-decylacetamide] | 96 | 100 |
| CC(CCc1ccccc1)NC(=O)CCl (stereo not drawn) [DKM 2-76, 2-Chloro-N-(4-phenylbutan-2-yl)acetamide] | 44 | 50 |
| O=C(CCl)NCc1ccc(F)cc1 [DKM 2-80, 2-chloro-N-(4-fluorobenzyl)acetamide] | 47 | 48 |

| Compound | viability at 50 µM [1] [%] | activity at 50 µM [2] [%] |
| --- | --- | --- |
| COc1ccc(CNC(=O)CCl)cc1 [DKM 2-83, 2-chloro-N-(4-methoxybenzyl)acetamide] | 66 | 48 |
| C=CC(=O)Nc1cccc2c1CCC2 [DKM 2-84, N-(2,3-dihydro-1H-inden-4-yl)acrylamide] | 74 | 84 |
| C=CC(=O)Nc1ccc2c(c1)OCO2 [DKM 2-86, N-(benzo[d][1,3]dioxol-5-yl)acrylamide] | 109 | 102 |
| O=C(CCl)Nc1cccc2c1CCC2 [DKM 2-91, 2-chloro-N-(2,3-dihydro-1H-inden-4-yl)acetamide] | 38 | 59 |
| COc1ccc(CNC(=O)CCl)cc1OC [DKM 2-93, 2-chloro-N-(3,4-dimethoxybenzyl)acetamide] | 74 | 57 |
| O=C(CCl)NCc1ccccc1Cl [DKM 2-94, 2-Chloro-N-(2-chlorobenzyl)acetamide] | 43 | 32 |
| C=CC(=O)N(C)Cc1ccccc1 [DKM 2-95, N-benzyl-N-methylacrylamide] | 52 | 85 |
| C=CC(=O)N1CCC(c2ccccc2)CC1 [DKM 2-97, 1-(4-phenylpiperidin-1-yl)prop-2-en-1-one] | 106 | 96 |
| C=CC(=O)Nc1ccc(-c2ccc(C#N)cc2)cc1 [DKM 2-98, N-(4′-cyano-[1,1′-biphenyl]-4-yl)acrylamide] | 52 | 42 |
| C=CC(=O)NCCN1CCOCC1 [DKM 2-100, N-(2-morpholinoethyl)acrylamide] | 138 | 100 |
| C=CC(=O)N1CCc2ccccc21 [DKM 2-101, 1-(indolin-1-yl)prop-2-en-1-one] | 39 | 96 |
| C=CC(=O)NCCCC [DKM 2-102, N-butylacrylamide] | 124 | 133 |
| C=CC(=O)NCCCOC [DKM 2-103, N-(3-methoxypropyl)acrylamide] | 135 | 112 |
| C=CC(=O)NC1CCCCC1 [DKM 2-106, N-cyclohexylacrylamide] | 144 | 100 |
| C=CC(=O)Nc1ccc(Cl)cc1 [DKM 2-107, N-(4-chlorophenyl)acrylamide] | 86 | 99 |
| C=CC(=O)NC1CCCC1 [DKM 2-108, N-cyclopentylacrylamide] | 61 | 95 |
| C=CC(=O)N1CCC(OC)CC1 [DKM 2-109, 1-(4-methoxypiperidin-1-yl)prop-2-en-1-one] | 140 | 96 |
| C=CC(=O)NCc1ccc(OC)c(OC)c1 [DKM 2-110, N-(3,4-dimethoxybenzyl)acrylamide] | 112 | 95 |
| C=CC(=O)N1CCN(C(=O)OC(C)(C)C)CC1 [DKM 2-111, tert-butyl 4-acryloylpiperazine-1-carboxylate] | 133 | 106 |
| C=CC(=O)NCCOc1ccccc1 [DKM 2-113, N-(2-phenoxyethyl)acrylamide] | 75 | 147 |
| C=CC(=O)N(C1CCCCC1)C1CCCCC1 [DKM 2-114, N,N-dicyclohexylacrylamide] | 76 | 111 |
| C=CC(=O)NCc1ccc(C(F)(F)F)cc1 [DKM 2-116, N-(4-(trifluoromethyl)benzyl)acrylamide] | 123 | 90 |
